The record followed here is US20260008768A1, “UREA DERIVATIVES FOR INHIBITING NLRP3 AND USES THEREOF” (VENTUS THERAPEUTICS U.S., INC., priority 2023, published 2026).

The assay concerns the target human NLRP3 (Homo sapiens, UniProt Q96P20). In words: Scintillation Proximity (SPA) NLRP3 Assay, displacement of 3H-MCC950. Format: binding. The note with it: displacement of 3H-MCC950 from human NLRP3. The procedure:
Improved NLRP3 binding correlates with increased affinity for NLRP3 protein and, by extension, increased ability to interfere with its function.
SPA experiments were conducted in a total volume of 20 μL assay buffer containing 20 mM HEPES pH 7.5, 150 mM NaCl, 5 mM MgCl2, 0.01% (v/v) Tween-20, 0.01% (w/v) bovine serum albumin (BSA) and 100 μM of adenosine diphosphate (ADP). A human NLRP3 protein (350 nM) (see, e.g., Sharif et al., Nature (2019) 570:338-343; Hochheiser et al., Nature (2022) 604:184-189; Adreeva et al., Cell (2021) 184:6299-6312; Wang et al., J Exp. Med. (2021) 219:e20211147) was incubated with various concentration of compounds in 5% dimethyl sulfoxide (DMSO) final for 15 minutes at room temperature in a white half-area 96 well OptiPlate (PerkinElmer #6002290) before adding 125 nM final of 3H-MCC950. After the addition of radiolabeled MCC950, the plate was incubated for 60 minutes at room temperature before adding 0.25 mg/ml of copper-coated polyvinyltoluene SPA beads (PerkinElmer #RPNQ0095). The plate was then transferred to a microplate counter (PerkinElmer 2450 Microbeta) to collect binding data. Binding data was analyzed 6 hrs post-PVT bead addition to allow sufficient time to reach equilibrium. Specific binding was calculated from averaged duplicates by subtracting signal from wells without NLRP3 protein.
SPA NLRP3 IC50 assay results are provided in Table B. “A” activity=<1 uM; “B” activity=1-10 uM; “C” activity=>10-50 uM; “D” activity=>50 uM-100 uM; and “E” activity=>100 uM.
(In general: SPA uses beads or plates that emit light when radiolabelled molecules are held near them.)

The IC50 is the concentration at which inhibition is half-maximal. Higher therefore signals weaker potency in that assay.

human NLRP3, sequence (Q96P20 whole entry): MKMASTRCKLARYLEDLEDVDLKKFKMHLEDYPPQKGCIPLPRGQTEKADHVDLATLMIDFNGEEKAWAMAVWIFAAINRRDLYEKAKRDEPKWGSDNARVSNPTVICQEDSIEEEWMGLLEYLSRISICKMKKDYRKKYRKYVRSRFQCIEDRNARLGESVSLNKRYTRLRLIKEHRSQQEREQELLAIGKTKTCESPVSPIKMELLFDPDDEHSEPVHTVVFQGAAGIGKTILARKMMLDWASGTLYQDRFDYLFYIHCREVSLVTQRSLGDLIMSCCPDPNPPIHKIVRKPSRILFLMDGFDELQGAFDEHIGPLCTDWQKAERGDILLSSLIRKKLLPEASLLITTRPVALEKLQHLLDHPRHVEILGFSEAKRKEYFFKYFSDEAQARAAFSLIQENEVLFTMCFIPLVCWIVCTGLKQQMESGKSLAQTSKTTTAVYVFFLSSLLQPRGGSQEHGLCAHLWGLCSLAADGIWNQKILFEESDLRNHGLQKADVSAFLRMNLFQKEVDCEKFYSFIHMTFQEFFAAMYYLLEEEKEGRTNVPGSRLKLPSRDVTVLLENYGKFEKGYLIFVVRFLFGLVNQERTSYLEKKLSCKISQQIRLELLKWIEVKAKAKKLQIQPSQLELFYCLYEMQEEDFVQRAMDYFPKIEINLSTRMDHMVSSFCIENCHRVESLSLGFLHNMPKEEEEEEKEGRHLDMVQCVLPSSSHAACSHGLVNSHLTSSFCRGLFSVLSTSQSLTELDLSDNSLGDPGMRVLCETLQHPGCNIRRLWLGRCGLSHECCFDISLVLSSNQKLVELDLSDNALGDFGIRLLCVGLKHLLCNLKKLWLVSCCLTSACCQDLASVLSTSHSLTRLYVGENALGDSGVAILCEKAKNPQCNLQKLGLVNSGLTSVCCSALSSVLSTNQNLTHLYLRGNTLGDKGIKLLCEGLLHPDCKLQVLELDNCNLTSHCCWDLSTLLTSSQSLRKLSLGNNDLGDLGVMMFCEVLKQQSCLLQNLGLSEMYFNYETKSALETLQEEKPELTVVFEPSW

Under “Table B, activity class”, `C[C@H]1C[C@@H](NC(=O)N(C)c2ccc3ocnc3c2)CN(c2nnn[nH]2)C1` [Compound 34A, 1-(benzo[d]oxazol-5-yl)-1-methyl-3-((3R,5S)-5-methyl-1-(1H-tetrazol-5-yl)piperidin-3-yl)urea] showed an IC50 of 50 to 100 µM.
Compound `C[C@H]1CCN(c2nnn[nH]2)C[C@H](NC(=O)N(C)c2ccc(Cl)c(F)c2)C1` (single isomer, unassigned) [12C*] showed an IC50 (Table B, activity class) of 10 to 50 µM.
`C[C@H]1CCN(c2nnn[nH]2)C[C@H](NC(=O)N(C)c2ccc(Cl)cc2Cl)C1` (single isomer, unassigned) [7C*] showed an IC50 (Table B, activity class) of 50 to 100 µM.
On to `C[C@H]1CCN(c2nnn[nH]2)C[C@@H](NC(=O)N(C)c2ccc(Cl)cc2F)C1` (single isomer, unassigned) [5D*], for which the IC50 (Table B, activity class) was 1 to 10 µM.
`C[C@H]1C[C@@H](NC(=O)N(C)c2c(F)cc(C3CC3)cc2F)[C@@H]2CC[C@H]1N2c1nnn[nH]1` (single isomer, unassigned) [60C*]: the IC50 (Table B, activity class) was 50 to 100 µM.
With `C[C@H]1C[C@H](NC(=O)N(C)c2ccc(C(F)F)cc2F)[C@@H]2CC[C@H]1N2c1nnn[nH]1` (single isomer, unassigned) [55D*], where the note is “Table B, activity class”, the IC50 is 10 to 50 µM.
For `C[C@@H]1CCN(c2nnn[nH]2)C[C@@H](NC(=O)N(C)c2ccc(Cl)c(F)c2)C1` (single isomer, unassigned) [12B*], the 50% inhibitory concentration (IC50) (Table B, activity class) lay within 1 to 10 µM.
Where the note is “Table B, activity class”, `C[C@H]1CCN(c2nnn[nH]2)C[C@H](NC(=O)N(C)c2ccc(OC(F)F)c(F)c2)C1` (single isomer, unassigned) [15C*] showed an IC50 greater than 100 µM.
As to `C[C@@H]1CCN(c2nnn[nH]2)C[C@@H](NC(=O)N(C)c2ccc(OC(F)F)cc2)C1` (single isomer, unassigned) [11B*], the IC50 (Table B, activity class) fell in the range of 1 to 10 µM.
The same measure, in the same setting: to `C[C@H]1CCN(c2nnn[nH]2)C[C@@H](NC(=O)N(C)c2ccc(C(F)(F)F)cc2F)C1` (single isomer, unassigned) [13D*] belongs 1 to 10 µM; to `C[C@@H]1C[C@H](NC(=O)N(C)c2ccc(OC(F)(F)F)c(F)c2F)[C@H]2CC[C@@H]1N2c1nnn[nH]1` (single isomer, unassigned) [59B*], 50 to 100 µM.
`C[C@@H]1CCN(c2nnn[nH]2)C[C@@H](NC(=O)N(C)c2c(F)cc(OC(F)F)cc2F)C1` (single isomer, unassigned) [19B*]: under “Table B, activity class”, the IC50 was 1 to 10 µM.
With `C[C@H]1C[C@@H](NC(=O)N(C)c2ccc3nccn3c2)CN(c2nnn[nH]2)C1` [Compound 37A, 1-(imidazo[1,2-a]pyridin-6-yl)-1-methyl-3-((3R,5S)-5-methyl-1-(1H-tetrazol-5-yl)piperidin-3-yl)urea], the IC50 (Table B, activity class) was greater than 100 µM.
In the case of `C[C@H]1CCN(c2nnn[nH]2)C[C@H](NC(=O)N(C)c2ccc(C3CC3)cc2)C1` (single isomer, unassigned) [8C*], the IC50 (Table B, activity class) was greater than 100 µM.
Take `C[C@H]1C[C@@H](NC(=O)N(C)c2ccc(C3CC3)cc2)[C@@H]2CC[C@H]1N2c1nnn[nH]1` (single isomer, unassigned) [46C*]: the IC50 (Table B, activity class) was 10 to 50 µM.
Consider `C[C@@H]1CCN(c2nnn[nH]2)C[C@H](NC(=O)N(C)c2ccc(Cl)cn2)C1` (single isomer, unassigned) [28A*], for which the IC50 (Table B, activity class) was 1 to 10 µM.
`C[C@@H]1C[C@@H](NC(=O)N(C)c2ccc(C(F)F)c(F)c2)[C@H]2CC[C@@H]1N2c1nnn[nH]1` (single isomer, unassigned) [53A*] registered an IC50 (Table B, activity class) of 1 to 10 µM.
Still for that read-out and setting: to `C[C@H]1C[C@@H](NC(=O)N(C)c2ccc(OC(F)F)c(OC(F)F)c2)[C@@H]2CC[C@H]1N2c1nnn[nH]1` (single isomer, unassigned) [64C*] belongs greater than 100 µM; to `C[C@H]1CCN(c2nnn[nH]2)C[C@H](NC(=O)N(C)c2c(F)cc(OC(F)(F)F)cc2F)C1` (single isomer, unassigned) [41C*], 50 to 100 µM.
`C[C@H]1CCN(c2nnn[nH]2)C[C@H](NC(=O)N(C)c2ncc(C(F)(F)F)cn2)C1` (single isomer, unassigned) [30C*] yielded an IC50 (Table B, activity class) greater than 100 µM.
The compound `C[C@H]1CCN(c2nnn[nH]2)C[C@@H](NC(=O)N(C)c2ccc(Cl)cn2)C1` (single isomer, unassigned) [28D*] displayed an IC50 (Table B, activity class) of 10 to 50 µM.
On the same count and under the same terms, to `C[C@H]1C[C@@H](NC(=O)N(C)c2ccc(Cl)c(F)c2)[C@@H]2CC[C@H]1N2c1nnn[nH]1` (single isomer, unassigned) [50C*] belongs greater than 100 µM; to `C[C@H]1CCN(c2nnn[nH]2)C[C@H](NC(=O)N(C)c2ccc(C3CC3)c(F)c2)C1` (single isomer, unassigned) [23C*], 10 to 50 µM.
In the case of `C[C@H]1CCN(c2nnn[nH]2)C[C@@H](NC(=O)N(C)c2cnc(C(F)(F)F)nc2)C1` (single isomer, unassigned) [31D*], the 50% inhibitory concentration (IC50) (Table B, activity class) was 10 to 50 µM.
The same measure, in the same setting: then `C[C@H]1C[C@H](NC(=O)N(C)c2ccc(OC(F)(F)F)c(OC(F)F)c2)[C@@H]2CC[C@H]1N2c1nnn[nH]1` (single isomer, unassigned) [63D*], with 50 to 100 µM; and `C[C@H]1CCN(c2nnn[nH]2)C[C@H](NC(=O)N(C)c2ccc(C(F)(F)F)c(F)c2)C1` (single isomer, unassigned) [9C*], with greater than 100 µM.
Consider `C[C@H]1C[C@@H](NC(=O)N(C)c2ccc(OC(F)F)cc2)CN(c2nnn[nH]2)C1` [Compound 39A, 1-(4-(difluoromethoxy)phenyl)-1-methyl-3-((3R,5S)-5-methyl-1-(1H-tetrazol-5-yl)piperidin-3-yl)urea], for which the concentration for half-maximal inhibition (IC50) runs as follows: (Table B, activity class) less than 1 µM; (Table C) 0.82 µM.
`C[C@@H]1C[C@H](NC(=O)N(C)c2c(F)cc(OC(F)(F)F)cc2F)[C@H]2CC[C@@H]1N2c1nnn[nH]1` (single isomer, unassigned) [62B*]: the concentration for half-maximal inhibition (IC50) (Table B, activity class) was greater than 100 µM.
The same measure, in the same setting: then `C[C@H]1C[C@@H](NC(=O)N(C)c2ccc3ccnn3c2)CN(c2nnn[nH]2)C1` [Compound 36A, 1-methyl-3-((3R,5S)-5-methyl-1-(1H-tetrazol-5-yl)piperidin-3-yl)-1-(pyrazolo[1,5-a]pyridin-6-yl)urea], with greater than 100 µM; and `C[C@@H]1CCN(c2nnn[nH]2)C[C@@H](NC(=O)Nc2ccc(Cl)cc2F)C1` (single isomer, unassigned) [27B*], with 1 to 10 µM; and `C[C@H]1CCN(c2nnn[nH]2)C[C@@H](NC(=O)N(C)c2c(F)cc(OC(F)(F)F)cc2F)C1` (single isomer, unassigned) [41D*], with 1 to 10 µM.
With `C[C@H]1C[C@@H](NC(=O)N(C)c2c(F)cc(OC(F)(F)F)cc2F)[C@@H]2CC[C@H]1N2c1nnn[nH]1` (single isomer, unassigned) [62C*], the IC50 (Table B, activity class) was in the range of 50 to 100 µM.
Take `C[C@H]1CCN(c2nnn[nH]2)C[C@H](NC(=O)N(C)c2ccc(C(F)(F)F)cc2F)C1` (single isomer, unassigned) [13C*]: the IC50 (Table B, activity class) is greater than 100 µM.
For the compound `C[C@H]1C[C@H](NC(=O)N(C)c2ccc(C3CC3)cc2)[C@@H]2CC[C@H]1N2c1nnn[nH]1` (single isomer, unassigned) [46D*], under “Table B, activity class”, the IC50 fell in the range of 10 to 50 µM.
`C[C@@H]1C[C@H](NC(=O)N(C)c2ccc(OC(F)F)c(OC(F)F)c2)[C@H]2CC[C@@H]1N2c1nnn[nH]1` (single isomer, unassigned) [64B*] yielded an IC50 (Table B, activity class) greater than 100 µM.
As for `C[C@@H]1C[C@H](NC(=O)N(C)c2ccc(OC(F)(F)F)c(OC(F)F)c2)[C@H]2CC[C@@H]1N2c1nnn[nH]1` (single isomer, unassigned) [63B*], under “Table B, activity class”, the IC50 is greater than 100 µM.
Still for that read-out and setting: to `C[C@H]1CCN(c2nnn[nH]2)C[C@H](NC(=O)N(C)c2ccc(OC(F)(F)F)cc2F)C1` (single isomer, unassigned) [24C*] belongs 10 to 50 µM.
